Assay results: patent US12435044B2, “Pyridazinone herbicides and pyridazinone intermediates used to prepare a herbicide” (FMC Corporation, priority 2018, dated 2025)

Tests used:
Test in all cases: Test C pre-/postemergence greenhouse test
Format in all cases: in vivo
corn (Zea mays) = conditions: scale 0 to 100
Excerpt: (§1) Seeds of plant species selected from blackgrass (Alopecurus myosuroides), ryegrass, Italian (Lolium multiflorum), wheat, winter (winter wheat, Triticum aestivum), galium (catchweed bedstraw, Galium aparine), corn (Zea mays), crabgrass, large (Digitaria sanguinalis), foxtail, giant (Setaria faberii), johnsongrass (Sorghum halepense), lambsquarters (Chenopodium album), morningglory (Ipomoea coccinea), nutsedge, yellow (Cyperus esculentus), pigweed (Amaranthus retroflexus), ragweed (common ragweed, Ambrosia elatior), soybean (Glycine max), barnyardgrass (Echinochloa crus-galli), oilseed rape (Brassica napus), waterhemp (common waterhemp, Amaranthus rudis), pigweed, palmer (Amaranthus palmeri), kochia (Kochia scoparia), oat, wild (Avena fatua), surinam grass (Brachiaria decumbens), windgrass (Apera spica-venti), poinsettia, wild (Euphorbia heterophylla) and velvetleaf (Abutilon theophrasti) were planted into a silt loam soil and treated preemergence with test chemicals formulated in a non-phytotoxic solvent mixture which included a surfactant.
(§2) At the same time, plants selected from these crop and weed species and also chickweed (common chickweed, Stellaria media), buckwheat, wild (Polygonum convolvulus), mustard, wild (Sinapis arvensis), field poppy (Papaver rhoeas), field violet (Viola arvensis), nightshade (eastern black nightshade, Solanum ptycanthum), speedwell (bird's-eye speedwell, Veronica persica), horseweed (Conyza canadensis), cutleaf geranium (Geranium dissectum), and Canada thistle (Cirsium arvense) were planted in pots containing Redi-Earth® planting medium (Scotts Company, 14111 Scottslawn Road, Marysville, Ohio 43041) comprising spaghnum peat moss, vermiculite, wetting agent and starter nutrients and treated with postemergence applications of test chemicals formulated in the same manner. Plants ranged in height from 2 to 18 cm (1- to 4-leaf stage) for postemergence treatments. Treated plants and controls were maintained in a greenhouse for 13 to 21 d, after which time all species were compared to controls and visually evaluated. Plant response ratings, summarized in Table C-1 (postemergence) and C-2 (preemergence), are based on a scale of 0 to 100 where 0 is no effect and 100 is complete control. A dash (-) response means no test result.

[1] = system: crabgrass, large (Digitaria sanguinalis); conditions: scale 0 to 100
Excerpt: as §1, §2

[2] = system: foxtail, giant (Setaria faberii); conditions: scale 0 to 100
Excerpt: as §1, §2

[3] = system: galium (catchweed bedstraw, Galium aparine); conditions: scale 0 to 100
Excerpt: as §1, §2

[4] = system: johnsongrass (Sorghum halepense); conditions: Preemergence, scale 0 to 100
Excerpt: as §1, §2

kochia (Kochia scoparia) = conditions: scale 0 to 100
Excerpt: as §1, §2

[5] = system: lambsquarters (Chenopodium album); conditions: Preemergence, scale 0 to 100
Excerpt: as §1, §2

[6] = system: nutsedge, yellow (Cyperus esculentus); conditions: Preemergence, scale 0 to 100
Excerpt: as §1, §2

[7] = system: pigweed, palmer (Amaranthus palmeri); conditions: scale 0 to 100
Excerpt: as §1, §2

[8] = system: poinsettia, wild (Euphorbia heterophylla); conditions: Preemergence, scale 0 to 100
Excerpt: as §1, §2

[9] = system: ryegrass, Italian (Lolium multiflorum); conditions: Preemergence, scale 0 to 100
Excerpt: as §1, §2

soybean (Glycine max) = conditions: scale 0 to 100
Excerpt: as §1, §2

[10] = system: surinam grass (Brachiaria decumbens); conditions: Preemergence, scale 0 to 100
Excerpt: as §1, §2

[11] = system: windgrass (Apera spica-venti); conditions: Preemergence, scale 0 to 100
Excerpt: as §1, §2

## Cc1ccc2ccc(F)cc2c1-c1c(O)c(Cl)nn(C)c1=O [Cpd. No. 21]
Corn (Zea mays); Postemergence, 16 g ai/ha
  Plant response rating, Corn: 0
Corn (Zea mays); Postemergence, 31 g ai/ha
  Plant response rating, Corn: 0
Corn (Zea mays); Postemergence, 62 g ai/ha
  Plant response rating, Corn: 15
Corn (Zea mays); Postemergence, 125 g ai/ha
  Plant response rating, Corn: 18
Corn (Zea mays); Preemergence, 31 g ai/ha
  Plant response rating, Corn: 0
Corn (Zea mays); Preemergence, 61 g ai/ha
  Plant response rating, Corn: 0
Corn (Zea mays); Preemergence, 62 g ai/ha
  Plant response rating, Corn: 5
Corn (Zea mays); Preemergence, 125 g ai/ha
  Plant response rating, Corn: 20
[1]; Postemergence, 16 g ai/ha
  Plant response rating, Crabgrass, Large: 40
[1]; Postemergence, 31 g ai/ha
  Plant response rating, Crabgrass, Large: 70
[1]; Postemergence, 62 g ai/ha
  Plant response rating, Crabgrass, Large: 40
[1]; Postemergence, 125 g ai/ha
  Plant response rating, Crabgrass, Large: 70
[1]; Preemergence, 31 g ai/ha
  Plant response rating, Crabgrass, Large: 25
[1]; Preemergence, 61 g ai/ha
  Plant response rating, Crabgrass, Large: 0
[1]; Preemergence, 62 g ai/ha
  Plant response rating, Crabgrass, Large: 30
[1]; Preemergence, 125 g ai/ha
  Plant response rating, Crabgrass, Large: 65
[2]; Postemergence, 16 g ai/ha
  Plant response rating, Foxtail, Giant: 70
[2]; Postemergence, 31 g ai/ha
  Plant response rating, Foxtail, Giant: 85
[2]; Postemergence, 62 g ai/ha
  Plant response rating, Foxtail, Giant: 90
[2]; Postemergence, 125 g ai/ha
  Plant response rating, Foxtail, Giant: 93
[2]; Preemergence, 31 g ai/ha
  Plant response rating, Foxtail, Giant: 85
[2]; Preemergence, 61 g ai/ha
  Plant response rating, Foxtail, Giant: 10
[2]; Preemergence, 62 g ai/ha
  Plant response rating, Foxtail, Giant: 98
[2]; Preemergence, 125 g ai/ha
  Plant response rating, Foxtail, Giant: 100
[3]; Postemergence, 16 g ai/ha
  Plant response rating, Galium: 90
[3]; Postemergence, 31 g ai/ha
  Plant response rating, Galium: 95
[3]; Postemergence, 62 g ai/ha
  Plant response rating, Galium: 98
[3]; Postemergence, 125 g ai/ha
  Plant response rating, Galium: 78
[3]; Preemergence, 31 g ai/ha
  Plant response rating, Galium: 95
[3]; Preemergence, 61 g ai/ha
  Plant response rating, Galium: 90
[3]; Preemergence, 62 g ai/ha
  Plant response rating, Galium: 95
[3]; Preemergence, 125 g ai/ha
  Plant response rating, Galium: 95
[4]; 31 g ai/ha
  Plant response rating, Johnsongrass: 10
[4]; 61 g ai/ha
  Plant response rating, Johnsongrass: 5
[4]; 62 g ai/ha
  Plant response rating, Johnsongrass: 50
[4]; 125 g ai/ha
  Plant response rating, Johnsongrass: 65
Kochia (Kochia scoparia); Postemergence, 16 g ai/ha
  Plant response rating, Kochia: 13
Kochia (Kochia scoparia); Postemergence, 31 g ai/ha
  Plant response rating, Kochia: 18
Kochia (Kochia scoparia); Postemergence, 62 g ai/ha
  Plant response rating, Kochia: 28
Kochia (Kochia scoparia); Postemergence, 125 g ai/ha
  Plant response rating, Kochia: 28
Kochia (Kochia scoparia); Preemergence, 31 g ai/ha
  Plant response rating, Kochia: 20
Kochia (Kochia scoparia); Preemergence, 61 g ai/ha
  Plant response rating, Kochia: 5
Kochia (Kochia scoparia); Preemergence, 62 g ai/ha
  Plant response rating, Kochia: 70
Kochia (Kochia scoparia); Preemergence, 125 g ai/ha
  Plant response rating, Kochia: 90
[5]; 31 g ai/ha
  Plant response rating, Lambsquarters: 70
[5]; 61 g ai/ha
  Plant response rating, Lambsquarters: 75
[5]; 62 g ai/ha
  Plant response rating, Lambsquarters: 85
[5]; 125 g ai/ha
  Plant response rating, Lambsquarters: 98
[6]; 31 g ai/ha
  Plant response rating, Nutsedge, Yellow: 60
[6]; 61 g ai/ha
  Plant response rating, Nutsedge, Yellow: 30
[6]; 62 g ai/ha
  Plant response rating, Nutsedge, Yellow: 85
[6]; 125 g ai/ha
  Plant response rating, Nutsedge, Yellow: 95
[7]; Postemergence, 16 g ai/ha
  Plant response rating, Pigweed, Palmer: 30
[7]; Postemergence, 31 g ai/ha
  Plant response rating, Pigweed, Palmer: 30
[7]; Postemergence, 62 g ai/ha
  Plant response rating, Pigweed, Palmer: 30
[7]; Postemergence, 125 g ai/ha
  Plant response rating, Pigweed, Palmer: 95
[7]; Preemergence, 31 g ai/ha
  Plant response rating, Pigweed, Palmer: 55
[7]; Preemergence, 61 g ai/ha
  Plant response rating, Pigweed, Palmer: 20
[7]; Preemergence, 62 g ai/ha
  Plant response rating, Pigweed, Palmer: 70
[7]; Preemergence, 125 g ai/ha
  Plant response rating, Pigweed, Palmer: 90
[8]; 31 g ai/ha
  Plant response rating, Poinsettia, Wild: 5
[8]; 61 g ai/ha
  Plant response rating, Poinsettia, Wild: 0
[8]; 62 g ai/ha
  Plant response rating, Poinsettia, Wild: 10
[8]; 125 g ai/ha
  Plant response rating, Poinsettia, Wild: 25
[9]; 31 g ai/ha
  Plant response rating, Ryegrass, Italian: 98
[9]; 61 g ai/ha
  Plant response rating, Ryegrass, Italian: 50
[9]; 62 g ai/ha
  Plant response rating, Ryegrass, Italian: 98
[9]; 125 g ai/ha
  Plant response rating, Ryegrass, Italian: 100
Soybean (Glycine max); Postemergence, 16 g ai/ha
  Plant response rating, Soybean: 10
Soybean (Glycine max); Postemergence, 31 g ai/ha
  Plant response rating, Soybean: 13
Soybean (Glycine max); Postemergence, 62 g ai/ha
  Plant response rating, Soybean: 20
Soybean (Glycine max); Postemergence, 125 g ai/ha
  Plant response rating, Soybean: 23
Soybean (Glycine max); Preemergence, 31 g ai/ha
  Plant response rating, Soybean: 0
Soybean (Glycine max); Preemergence, 61 g ai/ha
  Plant response rating, Soybean: 0
Soybean (Glycine max); Preemergence, 62 g ai/ha
  Plant response rating, Soybean: 0
Soybean (Glycine max); Preemergence, 125 g ai/ha
  Plant response rating, Soybean: 0
[10]; 31 g ai/ha
  Plant response rating, Surinam Grass: 100
[10]; 61 g ai/ha
  Plant response rating, Surinam Grass: 80
[10]; 62 g ai/ha
  Plant response rating, Surinam Grass: 100
[10]; 125 g ai/ha
  Plant response rating, Surinam Grass: 100
[11]; 31 g ai/ha
  Plant response rating, Windgrass: 75
[11]; 61 g ai/ha
  Plant response rating, Windgrass: 50
[11]; 62 g ai/ha
  Plant response rating, Windgrass: 85
[11]; 125 g ai/ha
  Plant response rating, Windgrass: 98
